# Patent US9891237B2, “Fluorescent sensor for metal cation detection based on 2-(2′-hydroxyphenyl)benzazole containing a Schiff base moiety” (priority 2013, dated 2018)
# Columns and labels:
# [1] = Fluorescence response of sensor 1 to Fe^3+ in H2O:EtOH=8:2
# Excerpt: (§1) (Cr: ΦF=0.63; Al: ΦF=0.31).
# [2] = Absorption and fluorescence of free sensor 1 in aqueous medium; assay type: physicochemical
# Description: Sensor 1 was synthesized by refluxing the corresponding dialdehyde (as described in W. Chen, Y. Xing, and Y. Pang, Org. Lett., 2011, 13, 1262) with hydrazinopyridine in EtOH for 2 hours, and was collected as yellow solid in >90% yield.
# as §1
# [3] = UV-vis and fluorescence response of sensor 1 to mono- and divalent metal ions
# Excerpt: as §1
# [4] = test system: human mesenchymal stem cells (hMSCs); assay: Confocal fluorescence imaging of intracellular Cr^3+ and Al^3+ with sensor 1; assay type: cell-based
# Excerpt: FIG. 15A provides a confocal fluorescence images of Human mesenchymal stem cells (hMSCs) excited with a Diode laser (405 nm) on an Olympus FV-1000 laser scanning microscope. The images were collected at bright field. […]
# FIG. 15B provides a confocal fluorescence images of Human mesenchymal stem cells (hMSCs) excited with a Diode laser (405 nm) on an Olympus FV-1000 laser scanning microscope. The images were collected at bright field. […] 15E was collected from 535-565 nm.
# FIG. 15C provides a confocal fluorescence images of Human mesenchymal stem cells (hMSCs) excited with a Diode laser (405 nm) on an Olympus FV-1000 laser scanning microscope. The images were collected at bright field. […] 15F was collected from 505-525 nm
# FIG. 15D provides a confocal fluorescence images of Human mesenchymal stem cells (hMSCs) excited with a Diode laser (405 nm) on an Olympus FV-1000 laser scanning microscope. The images were collected fluorescent channels. […]
# FIG. 15E provides a confocal fluorescence images of Human mesenchymal stem cells (hMSCs) excited with a Diode laser (405 nm) on an Olympus FV-1000 laser scanning microscope. The images were collected fluorescent channels. […] 15E was collected from 535-565 nm.
# FIG. 15F provides a confocal fluorescence images of Human mesenchymal stem cells (hMSCs) excited with a Diode laser (405 nm) on an Olympus FV-1000 laser scanning microscope. The images were collected fluorescent channels. […] 15F was collected from 505-525 nm
# The potential application of 1 for both Cr^3+ and Al^3+ in biological samples was examined by using confocal fluorescence microscopy. […] Bright-field measurements confirmed that the cells, after being treated with Cr^3+/Al^3+ and 1, were viable throughout the imaging experiments. […] Response to Cr^3+ and Al^3+ ions with distinctly different colors (yellow-green and cyan, respectively) from the cell samples raised the prospect that the Cr^3+ and Al^3+ ions could be simultaneously determined and distinguished
# [5] = UV-vis and fluorescence response of sensor 1 to Al^3+ in H2O:EtOH=8:2
# Excerpt: as §1
# [6] = UV-vis absorption and fluorescence response of 4 to Al^3+
# Description: (§2) FIG. 2 provides an absorbance spectra of 4 (10 μM) in EtOH/HEPES (10 mM) (1:1) (pH=7.2), upon addition of 5 equiv. of different cations.
# (§3) FIG. 3 provides a fluorescence spectra of 4 (10 μM) in EtOH:HEPES=1:1 (pH=7.2) upon addition of 5 equiv. of different ions.
# (§4) The binding property of 4 to Zn^2+ cation was examined in EtOH/HEPES (FIG. 2). As the Zn^2+ cation was added, a new absorption band was generated at about 450 nm.
# (§5) The ligand 4 gave a weak fluorescence peak at 580 nm (φfl=0.05). […] NIR emission was relatively stronger in pure methanol. The green fluorescence turn-on could be easily observed, making it also useful for naked eye detection (FIG. 3). […] In other words, the probe molecule 4 is silent to Cd^2+ cation, as its binding could not remove the phenolic proton (a necessary step to simultaneously shift the emission and turn on the ESIPT for NIR emission).
# (§6) In order to clarify the interaction of 4 with different metal ions, the UV-vis absorption and fluorescence spectra of 4 (10 μM in EtOH:H2O=1:1 solutions) were studied by addition of 5 equiv. of different cations.
# [7] = Absorption, emission and Stokes' shift of ligands and their zinc complexes (Table 1); assay type: physicochemical
# [8] = test system: human cancer cells (HepG2) and human umbilical vein endothelial cells (HUVECs); assay: Confocal fluorescence imaging of intracellular Zn^2+ with sensor 4; assay type: cell-based
# Description: FIG. 8A provides confocal fluorescence images of Human mesenchymal stem cells (hMSCs) excited with a 488 laser. The image were collected at bright field on an Olympus FV1000-Filter Confocal Microscopy. a→b: the cells were incubated with dye 4 for 60 mins at 37° C.
# FIG. 8B provides confocal fluorescence images of Human mesenchymal stem cells (hMSCs) excited with a 488 laser. The images were collected at green channel (535-565 nm) on an Olympus FV1000-Filter Confocal Microscopy. a→b: the cells were incubated with dye 4 for 60 mins at 37° C.
# FIG. 8C provides confocal fluorescence images of Human mesenchymal stem cells (hMSCs) excited with a 488 laser. The images were collected at bright field on an Olympus FV1000-Filter Confocal Microscopy. c→d: the cells were first treated with Zn(OAc)2 (30 μM) for 30 mins and further exposed to dye 4 (10 μM) for another 60 mins at 37° C.
# FIG. 8D provides confocal fluorescence images of Human mesenchymal stem cells (hMSCs) excited with a 488 laser. The images were collected green channel (535-565 nm) on an Olympus FV1000-Filter Confocal Microscopy. the cells were first treated with Zn(OAc)2 (30 μM) for 30 mins and further exposed to dye 4 (10 μM) for another 60 mins at 37° C.
# To illustrate the potential biological application, sensor 4 was applied to visualize intracellular Zn^2+ in both human cancer cells (HepG2) and human umbilical vein endothelial cells (HUVECs) (See FIGS. 8A-D). FIGS. 8A-D show confocal fluorescence images of Human mesenchymal stem cells (hMSCs) excited with a 488 laser. The images were collected at bright field (a and c) and green channel (535-565 nm; b and d) on an Olympus FV1000-Filter Confocal Microscopy. a→b: the cells were incubated with dye 4 for 60 mins at 37° C.; c→d: the cells were first treated with Zn(OAc)2 (30 μM) for 30 mins and further exposed to dye 4 (10 μM) for another 60 mins at 37° C. For this purpose, cells were first incubated with 30 μM of Zn^2+ for 30 mins and then further treated with 10 μM dye 4 for another […]. […]
# [9] = UV-vis absorption and fluorescence response of 4 to Cd^2+; assay type: binding
# Description: as §2, §3, §4, §5, §6
# When Cd^2+ was used, the interaction pattern appeared to be quite different. […] Therefore, the equilibrium between 6b and 8 might occur without forming the fused rings A-B in 4-Cd. […]
# [10] = Fluorescence of free ligand 4; assay type: physicochemical
# Description: as §3, §5, §6
# [11] = UV-vis absorption and fluorescence response/titration of 4 with Zn^2+ in EtOH/HEPES; assay type: binding
# Description: as §2, §3, §4, §5, §6
# A It is important to note that, while the ligand 4 can bind Zn^2+ cation well, the same is not true for the Cd^2+ cation, although the atomic configuration ([Ar]3d^10 for Zn^2+ and [Kr]4d^10 for Cd^2+). On the basis of quick disappearance of the —OH signal at ˜10 ppm (^1H NMR in FIG. 5), the initial step might involve a weak interaction of metal cation with the imine —CH═N—, forming intermediate 5. […] The Zn^2+ cation in 6a could further interact with the adjacent hydroxyl group to form the fused 6-membered ring “B”, which requires twisting of the “HBO” fragment from the Schiff base fragment (ring A).
# [12] = UV-vis absorption and fluorescence response of 4 to 5 equiv. of different cations
# Description: as §2, §3, §5, §6
# [13] = 10 μM in EtOH:H2O=1:1, 5 equiv.
smiles,measurement,setting,value
Oc1c(C=NNc2ccccn2)cc(C=NNc2ccccn2)cc1-c1nc2ccccc2o1 [Sensor 1],Stokes' shift of the Cr^3+ complex emission,,195 nm
same,new π-π* absorption band upon addition of Cr^3+,,about 358 nm
same,selectivity as chemosensor for Cr^3+,"10 equiv. other metal ions, then 10 equiv. Cr^3+",highly selective
same,fluorescence response upon addition of Cr^3+,H2O:EtOH=8:2,immediate fluorescence turn-on
same,ΦF with Cr^3+,H2O:EtOH=8:2,0.63
same,emission λem with Cr^3+,"H2O:EtOH=8:2, yellow green",~556 nm
same,fluorescence response upon addition of Fe^3+,[1],immediate fluorescence turn-on
same,time to quenching of fluorescence with Fe^3+,[1],≤ 5 min
same,absorption major peak (π-π*),[2],315 nm
same,absorption minor peak (n-π*),[2],432 nm
same,Stokes' shift,"[2]; free sensor, H2O:EtOH=8:2",180 nm
same,ΦF,"[2]; free sensor, H2O:EtOH=8:2",0.1
same,"fluorescence effect of Mn^2+, Ni^2+, Pb^2+, Ba^2+, Ag^+, Hg^2+",[3]; 10 equiv.,slight quenching
same,"response to Ca^2+, Mg^2+, Na^+ and K^+",[3]; 10 equiv.,negligible response
same,change in UV-vis spectra on addition of M^+ and M^2+ cations,"[3]; 10 equiv., except Cu^2+",almost no change
same,fluorescence effect of Cu^2+,[3]; 10 equivalents,quenched the fluorescence
same,fluorescence change on addition of divalent metal ions,"[3]; 10 equivalents, H2O:EtOH=8:2, except Cu^2+",negligible fluorescence change
same,cell permeability,[4],permeable to cells
same,"intracellular fluorescence, control without added metal ions",[4]; 10 μM dye,negligible intracellular fluorescence
same,cell viability during imaging (bright-field),[4]; after treatment with Cr^3+/Al^3+ and 1,viable
same,intracellular fluorescence after Al^3+,[4]; then 10 μM sensor 30 minutes,significant increase in the fluorescence
same,intracellular fluorescence after Cr^3+,[4]; then 10 μM sensor 30 minutes,significant increase in the fluorescence
same,Stokes' shift of the Al^3+ complex emission,[5],170 nm
same,stability of fluorescence with Al^3+ over time,[5],quite stable
same,fluorescence response upon addition of Al^3+,[5]; H2O:EtOH=8:2,immediate fluorescence turn-on
same,ΦF with Al^3+,[5]; H2O:EtOH=8:2,0.31
same,emission λem with Al^3+,"[5]; H2O:EtOH=8:2, blue-green",~527 nm
Cc1ccc2nc(-c3cc(O)c(C=NNc4ccccn4)cc3O)oc2c1 [Sensor 4],enhanced emission induced by Al^3+,[6],~610 nm
same,bathochromic shift of absorption on addition of other cations such as Al^3+,[6]; EtOH/HEPES,did not cause a notable bathochromic shift
same,Absorption λmax (nm),[7],413 nm
same,Stokes' shift,[7],6971 cm⁻¹
same,Emission λem (nm),[7]; first or only emission peak,580 nm
same,Stokes' shift,[7]; value in brackets,167 nm
same,cell permeability,[8],permeable to cells
same,fluorescence in cells treated with Zn^2+ and the dye,"[8]; 30 μM Zn^2+ 30 mins, then 10 μM dye",strong fluorescence
same,fluorescence in cells treated with only the dye,"[8]; dye only, green channel 535-565 nm, 488 laser",very weak fluorescence
same,fluorescence response to Cd^2+ cation,[9]; [13],no observable fluorescence response
same,binding to Cd^2+ cation,"[9]; absorption, EtOH/HEPES",weak binding
same,fluorescence peak of the ligand,[10],580 nm
same,φfl,[10],0.05
same,φfl upon addition of Zn^2+,[11]; 1:1 EtOH/H2O,0.26
same,new absorption band upon Zn^2+ addition,[11]; EtOH/HEPES,about 450 nm
same,association constant Ka,[11]; from the fluorescence titration data,228000 M⁻¹
same,Stokes' shift of NIR emission,[11]; upon Zn^2+ binding,~260 nm
same,NIR emission peak upon addition of Zn^2+ (keto tautomer),[11]; upon addition of Zn^2+,~720 nm
same,emission peak upon addition of Zn^2+ (enol tautomer),[11]; upon addition of Zn^2+,545 nm
same,selectivity toward Zn^2+ binding,[11]; versus other cations,excellent selectivity
same,"dual emission on addition of other cations (K^+, Na^+, Ag^+, Cd^2+, Ca^2+, Mg^2+, Pb^2+, Ni^2+, Hg^2+, Co^2+, Cu^2+, Cr^3+, Fe^3+, Al^3+)",[12],did not induce the dual emissions at 545 and 720 nm
same,"fluorescence effect of Ag^+, Co^2+, Ni^2+ and Cu^2+",[12]; [13],quenched the fluorescence
same,"fluorescence effect of Cr^3+, Fe^3+ and Al^3+",[12]; [13],slightly increased the fluorescence
same,"red shift of fluorescence signal on addition of Cr^3+, Fe^3+ and Al^3+",[12]; [13],25-37 nm
same,"response to K^+, Na^+, Ca^2+ ions",[12]; [13],no response
